These results are taken from publication PMC10108886 (Cancer Research Communications, 2023).

What all share (assay): cells
One assay concerns CWR22Rv1(shPARP7). As to conditions: AR Status=H874Y and V7, growth inhibition with PARP7-inducing ligand, partial maximal effect. An excerpt:
(§1) VCaP cells encode wild-type (WT) AR and the V7 variant, and are used to model castrate resistance owing to amplification of AR. CWR22Rv1 is an informative model for therapy resistance mediated by AR splice variants that lack the ligand-binding domain. PC3-AR is a PC3 derivative engineered to express WT AR, which drives a gene expression profile that overlaps other prostate lines ([18]). PC3 cells are AR negative, resistant to therapies based on androgen deprivation, highly motile, and used to study prostate cancer metastasis. […] It is well established that androgen treatment is growth repressive in some prostate cancer lines. […] A G1 effect of androgen is, however, apparent in VCaP and PC3-AR cells (Supplementary Fig. S1A). […] FICZ is a naturally occurring tryptophan photoproduct, while 10-Chloro-7H-benzimidazo[2,1-a]benz[de]isoquinolin-7-one (10-CI-BBQ; here termed BBQ) is a synthetic molecule. FICZ and BBQ induce AHR target genes through a chaperone-mediated mechanism ([26]). […] In A, D–H, each condition reflects eight biological replicates, error bars show the SD, and ****, P < 0.0001; ***, P < 0.001; **, <0.01. […] The experiments were performed in triplicate, error bars show the SD, and ***, P < 0.001; **, <0.01, *, <0.05; ns, not significant. C, Phase contrast microscopy showing the morphology of cells treated with AHR agonist and RBN2397. […] A similar image for CWR22Rv1 cells with vehicle alone (−) is used in both Fig. 2C and 4C. […] F, RBN2397 dose–response curve of VCaP cells treated with BBQ.

Another assay deals with PC3AR. Particulars: PC3/AR, read-out: EC50 of RBN2397 (nM), Ligand* (Conc.)=R1881 (0.2 nM); AR Status=WT; growth inhibition with PARP7-inducing ligand; partial maximal effect.
From the text: as §1

The subject of another assay is PC3AR(shGFP). As to conditions: PC3/AR, AR Status=WT, growth inhibition with PARP7-inducing ligand, partial maximal effect.
From the text: as §1

In another assay the test system is PC3. As to conditions: Homo sapiens, AR Status=(-), growth inhibition with PARP7-inducing ligand, partial maximal effect.
From the text: as §1

A further assay deals with VCaP. As to conditions: Homo sapiens, VCaP, AR Status=WT and V7, growth inhibition with PARP7-inducing ligand, partial maximal effect.
From the text: as §1

Another assay concerns DU145. As to conditions: Homo sapiens, DU-145, read-out: EC50 of RBN2397 (nM), Ligand* (Conc.)=BBQ (10 nM); AR Status=(-); growth inhibition with PARP7-inducing ligand; partial maximal effect.
From the text: as §1

Another assay has as its system PC3AR(shParp7). Particulars: PC3/AR, AR Status=WT, growth inhibition with PARP7-inducing ligand, partial maximal effect.
From the text: as §1

A further assay concerns CWR22Rv1(shGFP). Particulars: AR Status=H874Y and V7, growth inhibition with PARP7-inducing ligand, partial maximal effect.
From the text: as §1

Where [1] appears, read: CWR22Rv1, read-out: EC50 of RBN2397 (nM), Ligand* (Conc.)=BBQ (10 nM).
Where [2] appears, read: CWR22Rv1, read-out: EC50 of RBN2397 (nM), Ligand* (Conc.)=R1881 (2 nM).
The mark [3] stands for this setting: read-out: EC50 of RBN2397 (nM), Ligand* (Conc.)=BBQ (10 nM).
[4] abbreviates: read-out: EC50 of RBN2397 (nM), Ligand* (Conc.)=R1881 (0.2 nM).

The structures appear in SMILES notation. Where two headings read alike, the source gives them in different places.

For `C[C@@H](COCCC(=O)N1CCN(c2ncc(C(F)(F)F)cn2)CC1)Nc1cn[nH]c(=O)c1C(F)(F)F` [RBN2397], the EC50 in the assay with CWR22Rv1(shPARP7) (setting [1]) is 1.7 nM; in the assay on CWR22Rv1(shPARP7) (setting [2]), 39.6 nM; in the assay with PC3AR, 2.4 nM; in the assay on PC3AR(shGFP) (setting [3]) it was 8.4 nM; with PC3AR(shGFP) (setting [4]), 3.4 nM; in the assay on PC3 (PC-3, read-out: EC50 of RBN2397 (nM), Ligand* (Conc.)=BBQ (10 nM)), 10 nM. Besides, the EC50 with PC3 (PC-3, read-out: EC50 of RBN2397 (nM), Ligand* (Conc.)=R1881 (0.2 nM)) is 9.4 nM; in the assay with VCaP (read-out: EC50 of RBN2397 (nM), Ligand* (Conc.)=BBQ (100 nM)), 34.2 nM; in the assay on VCaP (read-out: EC50 of RBN2397 (nM), Ligand* (Conc.)=R1881 (2 nM)), 3.4 nM; in the assay with DU145, 5.2 nM; with PC3AR(shParp7) (setting [3]) it was 5.6 nM; in the assay with PC3AR(shParp7) (setting [4]) it was 5.7 nM. The EC50 in the assay with CWR22Rv1(shGFP) (setting [1]) amounted to 0.6 nM; in the assay with CWR22Rv1(shGFP) (setting [2]), 4.8 nM.

As a reminder, the EC50 is the concentration at which the effect is half-maximal.
